# Patent US10682367B2, “Antitumor arylnaphthalene ligand glycosides” (OHIO STATE INNOVATION FOUNDATION, priority 2016, dated 2020)
# Where two headings read alike, the source gives them in different places.
# What was measured:
# HT-29 cells = assay: Cytotoxicity / antiproliferative activity against HT-29 cells; format: cell-based; settings: HT-29 cells, antiproliferative activity
# Description: The cytotoxicity of the compounds in FIG. 1 was screened against HT-29 cells by a previously reported procedure (Ren Y et al. J. Nat. Prod 2011, 74, 1117-1125). A summary of the results is described in Table 1.
# [1] = Solubility, plate reader-based absorbance assay; format: physicochemical
# Description: A series of compounds were synthesized to improve their water solubility. In particular, phyllanthusmin derivatives including an arabinose derivative with a free C2 hydroxy group, have been explored to produce phosphate, succinate, and amino acid conjugates. In addition PHY-25 and PHY-30 have also been synthesized to contain similar alcohol functionality that can ultimately be utilized to improve water solubility. PHY-28 and PHY-29 containing a glucosamine moiety were also synthesized for improved water solubility. The water solubility of these and other PHY derivatives was assessed (Table 2) to establish a baseline of solubility in a series of 4 solutions. This was accomplished using a plate reader-based absorbance assay.
# The solubility, maximum tolerated dose, and pharmacokinetics of the phyllanthusmins, facilitating the in vivo studies with PHY-34, were also determined. The solubility of the compounds were assessed in DMSO, PEG300, HPβCD, and PBS. The stability of PHY-34 was assessed in a formulation comprising PEG300 and saline at a 1:1 volume ratio. The solution was prepared at a concentration of 7 mg/ml. A plate reader-based absorbance assay or LC-MS/MS was used. Table 4 summarizes the solubility measurements. FIG. 5 and Table 5 summarize the stability measurements. FIGS. 6A and 6B show the concentration-time profile of PHY-34 in mouse plasma via different administration routes
# [2] = system: OVCAR3 ovarian cancer cell line; assay: IC50 in ovarian cancer cell line OVCAR3; format: cell-based
# Protocol: (§1) The compounds shown in FIG. 2 were tested against two different ovarian cancer cell lines (xenograft mouse model OVCAR3 and OVCAR8 ovarian cancer cell lines). […] A summary of the test data is shown in FIGS. 3A, 3B, and 4 and Table 3. A comparison of the IC50 values of the compounds in FIG. 2 in two of the ovarian cancer cell lines (OVCAR3 and OVCAR8) reveal subtle differences in activity.
# [3] = system: OVCAR8 ovarian cancer cell line; assay: IC50 in ovarian cancer cell line OVCAR8; format: cell-based
# Protocol: as §1
# [4] = Structure-activity remarks on potency of PHY analogues (test not named); settings: relative to PHY-34 type acetal
molecule,measurement,setting,value
COc1cc2c(O[C@@H]3O[C@H](CO)[C@@H](O)[C@H](O)[C@H]3NC(C)=O)c3c(c(-c4ccc5c(c4)OCO5)c2cc1OC)C(=O)OC3 [PHY-29],IC50,HT-29 cells,19000 nM
phyllanthusmins C [PHY-4],Solubility in 10% Cremaphor EL/PBS,[1],9.4 mg/mL
same,Solubility in DMSO,[1],63 mg/mL
same,Solubility in PBS,[1],0.17 mg/mL
same,Solubility in PEG300,[1],32 mg/mL
"CC(=O)O[C@H]1C(=O)[C@@]2(C)[C@H]([C@H](OC(=O)c3ccccc3)[C@]3(O)C[C@H](OC(=O)[C@H](O)[C@@H](NC(=O)c4ccccc4)c4ccccc4)C(C)=C1C3(C)C)[C@]1(OC(C)=O)CO[C@@H]1C[C@@H]2O [TAXOL, Taxol, reference compound]",IC50,"[2]; Homo sapiens, OVCAR-3",5.91 nM
same,IC50,"[3]; Homo sapiens, OVCAR-8",7.76 nM
"COc1cc2c(OC3OC4COC(C)OC4C(O)C3O)c3c(c(-c4ccc5c(c4)OCO5)c2cc1OC)C(=O)OC3 [PHY-32, 7-O-(4,6-O-ethylidene-β-D-galactopyranosyl)-diphyllin]",effect of acetal variation on potency (in words),[4],loss of potency
C=CCOc1c2c(c(-c3ccc4c(c3)OCO4)c3cc(OC)c(OC)cc13)C(=O)OC2 [PHY-18],IC50,HT-29 cells,570 nM
phyllanthusmins C [PHY-11],Solubility in 10% Cremaphor EL/PBS,[1],10 mg/mL
same,Solubility in DMSO,[1],83 mg/mL
same,Solubility in PBS,[1],0.18 mg/mL
same,Solubility in PEG300,[1],15 mg/mL
COc1cc2c(OC3OC(CO)C4OC5(CCCCC5)OC4C3O)c3c(c(-c4ccc5c(c4)OCO5)c2cc1OC)C(=O)OC3 (stereo not drawn) [PHY-42],IC50,[2]; OVCAR3,377 nM
same,effect of acetal variation on potency (in words),[4],well tolerated
same,IC50,[3]; OVCAR8,1.99 nM
COc1cc2c(OC3OC(CO)C(OC)C(OC)C3OC)c3c(c(-c4ccc5c(c4)OCO5)c2cc1OC)C(=O)OC3 (stereo not drawn) [PHY-25],IC50,HT-29 cells,1.7 nM
same,IC50,[2]; OVCAR3,1500 nM
same,IC50,[3]; OVCAR8,10.4 nM
phyllanthusmins C [PHY-20],IC50,HT-29 cells,1210 nM
same,Solubility in 10% Cremaphor EL/PBS,[1],10 mg/mL
same,Solubility in DMSO,[1],86 mg/mL
same,Solubility in PBS,[1],0.16 mg/mL
same,Solubility in PEG300,[1],24 mg/mL
COc1cc2c(OC3OCC4OC(C)(C)OC4C3O)c3c(c(-c4ccc5c(c4)OCO5)c2cc1OC)C(=O)OC3 (stereo not drawn) [PHY-30],IC50,HT-29 cells,10.8 nM
same,IC50,[2]; OVCAR3,11.5 nM
same,IC50,[3]; OVCAR8,11.7 nM
"COc1cc2c(O[C@@H]3OC[C@H](OC(C)=O)[C@H](OC(C)=O)[C@H]3OC(C)=O)c3c(c(-c4ccc5c(c4)OCO5)c2cc1OC)C(=O)OC3 [PHY-7, 7-O-((2,3,4-tri-O-acetyl)-α-L-arabinopyranosyl) diphyllin]",Solubility in 10% Cremaphor EL/PBS,[1],7.4 mg/mL
same,Solubility in DMSO,[1],112 mg/mL
same,Solubility in PBS,[1],0.14 mg/mL
same,Solubility in PEG300,[1],5.7 mg/mL
phyllanthusmins D [PHY-1],IC50,[2]; OVCAR3,10900 nM
same,Solubility in 10% Cremaphor EL/PBS,[1]; Table 2,8.4 mg/mL
same,Solubility in DMSO,[1]; Table 2,97 mg/mL
same,Solubility in PBS,[1]; Table 2,0.12 mg/mL
same,Solubility in PEG300,[1]; Table 2,33 mg/mL
same,IC50,[3]; OVCAR8,49.9 nM
"acutissimalignan A [ACUTA, reference compound]",IC50,[2]; OVCAR3,3130 nM
same,IC50,[3]; OVCAR8,35.8 nM
COCC1OC(Oc2c3c(c(-c4ccc5c(c4)OCO5)c4cc(OC)c(OC)cc24)C(=O)OC3)C(OC)C2OC(C)(C)OC12 (stereo not drawn) [PHY-35],IC50,[2]; OVCAR3,4.85 nM
same,Solubility in DMSO,[1],86.8 mg/mL
same,Solubility in PEG300,[1],25.4 mg/mL
same,IC50,[3]; OVCAR8,7.04 nM
"COc1cc2c(OC3OC4COC(C)OC4C(OC)C3OC)c3c(c(-c4ccc5c(c4)OCO5)c2cc1OC)C(=O)OC3 [PHY-33, 7-O-(4,6-O-ethylidene-2,3-di-O-methyl-β-D-galactopyranosyl)-diphyllin]",effect of acetal variation on potency (in words),[4],loss of potency
phyllanthusmins B [PHY-3],Solubility in 10% Cremaphor EL/PBS,[1],8.9 mg/mL
same,Solubility in DMSO,[1],16 mg/mL
same,Solubility in PBS,[1],0.18 mg/mL
same,Solubility in PEG300,[1],30 mg/mL
COc1cc2c(OC3OCC4OC(C)(C)OC4C3OC)c3c(c(-c4ccc5c(c4)OCO5)c2cc1OC)C(=O)OC3 (stereo not drawn) [PHY-31],IC50,HT-29 cells,5.29 nM
COc1cc2c(OCCOCc3ccccc3)c3c(c(-c4ccc5c(c4)OCO5)c2cc1OC)C(=O)OC3 [PHY-17],IC50,HT-29 cells,1420 nM
COc1cc2c(OCC(O)CO)c3c(c(-c4ccc5c(c4)OCO5)c2cc1OC)C(=O)OC3 (stereo not drawn) [PHY-19],IC50,HT-29 cells,1560 nM
"COc1cc([C@@H]2c3cc4c(cc3[C@@H](O[C@@H]3O[C@@H]5CO[C@@H](C)O[C@H]5[C@H](O)[C@H]3O)[C@H]3COC(=O)[C@H]23)OCO4)cc(OC)c1O [ETOPO, etoposide, reference compound]",IC50,[2]; OVCAR3,2380 nM
same,IC50,[3]; OVCAR8,8130 nM
COc1cc2c(O[C@@H]3O[C@H](COC(C)=O)[C@@H](OC(C)=O)[C@H](OC(C)=O)[C@H]3NC(C)=O)c3c(c(-c4ccc5c(c4)OCO5)c2cc1OC)C(=O)OC3 [PHY-28],IC50,HT-29 cells,1550 nM
COc1cc2c(OC)c3c(c(-c4ccc5c(c4)OCO5)c2cc1OC)C(=O)OC3 [PHY-26],IC50,[2]; OVCAR3,12000 nM
same,IC50,[3]; OVCAR8,151 nM
COc1cc2c(OC3OC(CO)C4OC(C)(C)OC4C3OC)c3c(c(-c4ccc5c(c4)OCO5)c2cc1OC)C(=O)OC3 (stereo not drawn) [PHY-37],IC50,[2]; OVCAR3,3.59 nM
same,Solubility in 30% HPβCD,[1]; Table 4,0.6 mg/mL
same,Solubility in DMSO,[1]; Table 4,104.0 mg/mL
same,Solubility in PBS,[1]; Table 4,— (below the limit of quantitation (0.01 mg/ml))
same,Solubility in PEG300,[1]; Table 4,28.7 mg/mL
same,IC50,[3]; OVCAR8,4.87 nM
phyllanthusmins C [PHY-15],Solubility in 10% Cremaphor EL/PBS,[1],10 mg/mL
same,Solubility in DMSO,[1],75 mg/mL
same,Solubility in PBS,[1],0.20 mg/mL
same,Solubility in PEG300,[1],14 mg/mL
COc1cc2c(OC3OC(CO)C4OC5(CCCC5)OC4C3O)c3c(c(-c4ccc5c(c4)OCO5)c2cc1OC)C(=O)OC3 (stereo not drawn) [PHY-43],IC50,[2]; OVCAR3,119 nM
same,effect of acetal variation on potency (in words),[4],well tolerated
same,IC50,[3]; OVCAR8,2.44 nM
